Source: article PMC10447267, “Assessment of the potential of the MET inhibitor tepotinib to affect the pharmacokinetics of CYP3A4 and P-gp substrates” (Investigational New Drugs, 2023)
Read-outs that look alike come from different tables or passages of the source.

What was measured:
CYP2A6 = target: T1, CYP2A6 (Homo sapiens, UniProt P11509); assay: CYP2A6 inhibition in pooled human liver microsomes; assay type: in vitro ADME; details: Coumarin 7-hydroxylation; for inhibition at 49.5 µM: both sexes, human, pooled human liver microsomes, probe coumarin
T1 construct: pooled mixed-gender human liver microsomes; from tissue; host or cells: pooled mixed-gender human liver microsomes
T1 sequence (P11509 1-494): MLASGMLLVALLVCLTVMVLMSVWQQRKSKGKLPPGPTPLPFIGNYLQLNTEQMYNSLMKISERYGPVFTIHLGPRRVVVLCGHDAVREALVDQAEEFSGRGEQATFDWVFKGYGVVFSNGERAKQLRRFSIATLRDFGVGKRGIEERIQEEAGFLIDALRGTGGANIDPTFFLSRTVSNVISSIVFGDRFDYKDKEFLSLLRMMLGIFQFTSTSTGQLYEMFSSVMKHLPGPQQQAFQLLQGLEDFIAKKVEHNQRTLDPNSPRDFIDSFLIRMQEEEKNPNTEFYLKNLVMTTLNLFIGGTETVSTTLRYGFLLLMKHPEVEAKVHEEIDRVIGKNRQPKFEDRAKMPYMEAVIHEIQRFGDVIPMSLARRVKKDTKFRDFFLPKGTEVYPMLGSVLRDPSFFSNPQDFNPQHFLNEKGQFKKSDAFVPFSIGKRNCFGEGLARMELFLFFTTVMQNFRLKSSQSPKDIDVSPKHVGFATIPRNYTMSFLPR
Description: (§1) The potential of tepotinib and MSC2571109A to inhibit CYP450 enzymes CYP1A2, 2A6, 2B6, 2C8, 2C9, 2C19, 2D6, 2E1, and 3A4/5 in vitro was evaluated using CYP-catalyzed reactions in pooled mixed-gender human liver microsomes using specific substrates and liquid chromatography/tandem mass spectrometry (LC–MS/MS) readouts. […] Testosterone 6β-hydroxylation was assessed in the MSC2571109A study. Assessments of mechanism-based inhibition of the above listed CYP450 enzymes were conducted after pre-incubation of the microsomes with tepotinib or MSC2571109A. A brief summary of the incubation methods, including details of substrates used for the other CYP enzymes (which are not pertinent to this article) are presented in Online Resource 1. The LC–MS/MS-based methods used were consistent with those previously described in the literature.

P-gp = P-gp (Homo sapiens, UniProt P08183); assay: Study 2 (NCT03492437): effect of tepotinib on dabigatran pharmacokinetics in healthy participants; assay type: in vivo; details: clinical; tepotinib 500 mg QD
Description: Study 1 (NCT03628339) and Study 2 (NCT03492437) were both Phase 1, open-label, single sequence, 2-period studies in 12 and 20 healthy participants, respectively (Fig. 1).
In Period 2 (Days 4 to 14), participants received 500 mg tepotinib QD on Days 4 to 11. […] Blood samples for trough concentrations of tepotinib were collected on Days 9 and 10. Further blood samples for tepotinib and its metabolites were also collected up to 24 h postdose on Day 10.
Parameters included maximum plasma concentration (Cmax) and time to reach Cmax (Tmax) taken directly from the observed data. Area under the plasma concentration–time curve (AUC) from time 0 to the last measured concentration (AUC0-t), AUC over the dose interval (AUCtau) and AUC extrapolated to infinity (AUC0-∞) were calculated using the mixed log/linear trapezoidal rule. Terminal elimination half-life (t1/2) was calculated as ln(2)/λz where λz is the terminal rate constant. The primary pharmacokinetic parameters in both studies were Cmax, AUC0-t and AUC0-∞.
A similar statistical approach was taken for both studies. […] Point estimates and CIs were back-transformed to the original scale.

CYP1A2 = target: T2, CYP1A2 (Homo sapiens, UniProt P05177); assay: CYP1A2 inhibition in pooled human liver microsomes; assay type: in vitro ADME; details: for inhibition at 49.5 µM: both sexes, human, microsomes
T2 construct: pooled mixed-gender human liver microsomes; from tissue; host or cells: pooled mixed-gender human liver microsomes
T2 sequence (P05177 1-516): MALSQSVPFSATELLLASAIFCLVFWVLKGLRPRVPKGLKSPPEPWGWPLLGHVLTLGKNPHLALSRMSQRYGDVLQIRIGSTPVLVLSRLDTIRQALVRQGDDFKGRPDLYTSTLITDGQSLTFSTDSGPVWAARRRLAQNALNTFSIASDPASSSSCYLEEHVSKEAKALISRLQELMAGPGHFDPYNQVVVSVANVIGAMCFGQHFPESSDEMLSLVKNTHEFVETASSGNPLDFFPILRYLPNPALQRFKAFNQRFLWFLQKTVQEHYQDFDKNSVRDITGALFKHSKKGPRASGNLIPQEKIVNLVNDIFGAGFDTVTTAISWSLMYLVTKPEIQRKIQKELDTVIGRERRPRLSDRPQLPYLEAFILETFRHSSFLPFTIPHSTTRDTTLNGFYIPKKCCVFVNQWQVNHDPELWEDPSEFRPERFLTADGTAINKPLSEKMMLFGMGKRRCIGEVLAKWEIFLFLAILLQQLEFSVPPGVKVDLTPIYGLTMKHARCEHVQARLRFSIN
Description: as §1

[1] = human mass balance study; cited from earlier work
CYP1A1/2 = CYP1A1/2 activity induction in primary human hepatocyte cultures; assay type: in vitro ADME; details: enzyme activity quantification
Description: (§2) In vitro studies in primary human hepatocyte cultures were conducted to assess the potential of tepotinib to induce human CYP1A1/2, 2B6 and 3A4/5 activity, the latter based on testosterone 6β-hydroxylation reactions (Online Resource 2). […] The studies included positive (rifampin) and vehicle (DMSO) controls. A negative control (flumazenil) was also included in the mRNA studies. The study designs, test systems and selection of prototypical inducers used in these studies were consistent with PhRMA, FDA and EMA guidelines.

CYP2D6 = target: T3, CYP2D6 (Homo sapiens, UniProt P10635); assay: biochemical; assay type: in vitro ADME; details: for inhibition at 49.5 µM: both sexes, human, microsomes
T3 construct: pooled mixed-gender human liver microsomes; from tissue; host or cells: pooled mixed-gender human liver microsomes
Description: as §1

CYP2E1 = target: T4, CYP2E1 (Homo sapiens, UniProt P05181); assay: biochemical; assay type: in vitro ADME; details: for inhibition at 49.5 µM: both sexes, human, microsomes
T4 construct: pooled mixed-gender human liver microsomes; from tissue; host or cells: pooled mixed-gender human liver microsomes
Description: as §1

[2] = Tepotinib steady-state pharmacokinetics at the clinical dose; details: human, in vivo, oral, 500 mg
[3] = substance not given, taken as tepotinib; ref the healthcare business of Merck KGaA, Darmstadt, Germany, data on file; cited from earlier work
CYP3A4 mRNA = CYP3A4 mRNA induction in human hepatocyte cultures; assay type: in vitro ADME
Description: as §2

T3 sequence (P10635 whole entry): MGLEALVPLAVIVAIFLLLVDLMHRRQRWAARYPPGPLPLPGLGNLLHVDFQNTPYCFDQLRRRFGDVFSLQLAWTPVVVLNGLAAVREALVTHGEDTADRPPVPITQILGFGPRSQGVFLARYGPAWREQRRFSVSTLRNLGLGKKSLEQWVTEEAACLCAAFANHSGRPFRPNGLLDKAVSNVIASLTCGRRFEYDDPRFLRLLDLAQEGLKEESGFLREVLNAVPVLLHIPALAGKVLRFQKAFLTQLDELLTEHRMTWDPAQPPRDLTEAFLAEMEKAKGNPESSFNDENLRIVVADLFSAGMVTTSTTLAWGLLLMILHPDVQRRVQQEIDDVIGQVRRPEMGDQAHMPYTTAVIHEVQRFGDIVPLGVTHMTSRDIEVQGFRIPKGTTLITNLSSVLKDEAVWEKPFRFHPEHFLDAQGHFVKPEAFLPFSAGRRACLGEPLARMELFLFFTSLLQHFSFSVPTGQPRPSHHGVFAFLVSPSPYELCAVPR
T4 sequence (P05181 whole entry): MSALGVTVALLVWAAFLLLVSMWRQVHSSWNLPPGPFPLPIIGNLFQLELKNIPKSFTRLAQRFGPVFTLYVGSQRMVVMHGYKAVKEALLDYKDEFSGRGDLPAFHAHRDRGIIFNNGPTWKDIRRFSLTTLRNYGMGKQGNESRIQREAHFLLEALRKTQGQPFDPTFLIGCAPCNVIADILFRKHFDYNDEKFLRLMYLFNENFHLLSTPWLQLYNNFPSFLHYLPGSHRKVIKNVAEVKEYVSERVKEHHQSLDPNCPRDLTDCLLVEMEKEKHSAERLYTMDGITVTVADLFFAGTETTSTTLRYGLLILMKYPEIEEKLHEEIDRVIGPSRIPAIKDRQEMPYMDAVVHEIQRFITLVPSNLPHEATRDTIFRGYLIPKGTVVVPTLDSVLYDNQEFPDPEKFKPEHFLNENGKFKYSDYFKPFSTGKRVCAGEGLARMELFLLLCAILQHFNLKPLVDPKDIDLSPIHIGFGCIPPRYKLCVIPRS
Chain of P-gp (P08183 whole entry): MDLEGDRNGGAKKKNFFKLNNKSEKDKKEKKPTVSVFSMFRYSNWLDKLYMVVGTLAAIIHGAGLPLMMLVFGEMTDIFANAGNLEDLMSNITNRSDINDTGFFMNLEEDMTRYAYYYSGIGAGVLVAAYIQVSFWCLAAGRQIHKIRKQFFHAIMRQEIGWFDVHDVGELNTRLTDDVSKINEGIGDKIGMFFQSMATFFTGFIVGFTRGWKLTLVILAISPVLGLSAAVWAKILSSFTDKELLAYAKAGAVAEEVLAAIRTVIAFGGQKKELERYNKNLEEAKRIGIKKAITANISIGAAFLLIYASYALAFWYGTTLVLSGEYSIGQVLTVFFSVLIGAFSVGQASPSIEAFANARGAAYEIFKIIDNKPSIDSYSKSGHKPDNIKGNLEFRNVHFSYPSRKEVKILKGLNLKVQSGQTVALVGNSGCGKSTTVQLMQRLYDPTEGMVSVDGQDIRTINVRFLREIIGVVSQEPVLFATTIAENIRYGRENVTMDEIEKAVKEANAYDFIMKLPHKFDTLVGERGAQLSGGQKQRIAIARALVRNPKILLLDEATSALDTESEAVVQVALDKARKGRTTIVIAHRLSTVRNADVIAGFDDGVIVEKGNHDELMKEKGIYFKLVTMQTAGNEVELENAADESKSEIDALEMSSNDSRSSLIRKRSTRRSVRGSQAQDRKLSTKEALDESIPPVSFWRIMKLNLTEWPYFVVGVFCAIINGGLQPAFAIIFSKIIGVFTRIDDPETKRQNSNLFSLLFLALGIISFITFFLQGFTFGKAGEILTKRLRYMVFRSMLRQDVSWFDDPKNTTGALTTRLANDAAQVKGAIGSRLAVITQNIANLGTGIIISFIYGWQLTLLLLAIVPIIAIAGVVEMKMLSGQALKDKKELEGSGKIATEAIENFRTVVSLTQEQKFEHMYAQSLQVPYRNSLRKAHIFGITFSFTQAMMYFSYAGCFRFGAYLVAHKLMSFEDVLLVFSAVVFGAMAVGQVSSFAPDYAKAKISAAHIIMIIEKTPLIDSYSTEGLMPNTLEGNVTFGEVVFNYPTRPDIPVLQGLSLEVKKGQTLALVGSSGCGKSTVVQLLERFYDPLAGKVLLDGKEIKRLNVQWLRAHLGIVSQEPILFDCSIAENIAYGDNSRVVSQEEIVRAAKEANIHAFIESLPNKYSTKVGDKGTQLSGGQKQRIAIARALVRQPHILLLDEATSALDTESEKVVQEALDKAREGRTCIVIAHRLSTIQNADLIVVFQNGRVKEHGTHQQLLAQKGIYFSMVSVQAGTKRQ

With `CN1CCC(COc2cnc(-c3cccc(Cn4nc(-c5cccc(C#N)c5)ccc4=O)c3)nc2)CC1` [tepotinib] the “Potential for time-dependent inhibition” value (CYP2A6) was “Little or No”, the IC50 (CYP2A6; 30-min preincubation, read-out: Time-dependent inhibition IC50) was 39 µM and the inhibition at 49.5 µM (CYP2A6; 30-min preincubation, read-out: Time-dependent inhibition, maximum inhibition at 49.5 µM) was 52%. For the same compound, the inhibition at 49.5 µM (CYP2A6; zero-minute preincubation, read-out: Direct inhibition, maximum inhibition at 49.5 µM) was 51%, the IC50 (CYP2A6; human liver microsomes, zero-minute preincubation, read-out: Direct inhibition IC50) was over 49.5 µM and the “Inhibition of P-gp-mediated efflux transport of dabigatran etexilate (in words)” value (P-gp) was “weak inhibitor”. For the same compound, the IC50 (CYP1A2) was over 49.5 µM, the “Potential for time-dependent inhibition” value (CYP1A2; Phenacetin O-dealkylation) was “Little or No” and the inhibition at 49.5 µM (CYP1A2; Phenacetin O-dealkylation, 30-min preincubation, read-out: Time-dependent inhibition, maximum inhibition at 49.5 µM) was 26%. The inhibition at 49.5 µM (CYP1A2; Phenacetin O-dealkylation, zero-minute preincubation, read-out: Direct inhibition, maximum inhibition at 49.5 µM) was 11%, the IC50 (CYP1A2; read-out: Time-dependent inhibition IC50, Phenacetin O-dealkylation, 30-min preincubation) was over 49.5 µM and the “Share of total circulating radioactivity in plasma” value [1] was 55%. For the same compound, the “Induction of CYP1A1/2 activity” value (CYP1A1/2) was “less than 40 % of positive control”, the IC50 (CYP2D6) was over 49.5 µM and the “Potential for time-dependent inhibition” value (CYP2D6; Dextromethorphan O-demethylation) was “Little or No”. It also gave an inhibition at 49.5 µM (CYP2D6; Dextromethorphan O-demethylation, 30-min preincubation, read-out: Time-dependent inhibition, maximum inhibition at 49.5 µM) of 24%, an inhibition at 49.5 µM (CYP2D6; Dextromethorphan O-demethylation, zero-minute preincubation, read-out: Direct inhibition, maximum inhibition at 49.5 µM) of 50% and an IC50 (CYP2D6; read-out: Time-dependent inhibition IC50, Dextromethorphan O-demethylation, 30-min preincubation) of over 49.5 µM. For the same compound, the IC50 (CYP2E1) was over 49.5 µM, the “Potential for time-dependent inhibition” value (CYP2E1; Chlorzoxazone 6-hydroxylation) was “Little or No” and the inhibition at 49.5 µM (CYP2E1; Chlorzoxazone 6-hydroxylation, 30-min preincubation, read-out: Time-dependent inhibition, maximum inhibition at 49.5 µM) was 17%. For the same compound, the inhibition at 49.5 µM (CYP2E1; Chlorzoxazone 6-hydroxylation, zero-minute preincubation, read-out: Direct inhibition, maximum inhibition at 49.5 µM) was 19%, the IC50 (CYP2E1; read-out: Time-dependent inhibition IC50, Chlorzoxazone 6-hydroxylation, 30-min preincubation) was over 49.5 µM and the Tmax ([2]; Median steady state Tmax) was 8 h. The Tmax ([2]; Steady state Tmax, range) was 2 to 24 h, the “Geometric mean free Cmax” value [3] was 52.4 nM and the “Increase in CYP3A4 mRNA” value (CYP3A4 mRNA; human hepatocyte cultures, maximum (up to), concentration-dependent) was “up to 7 fold”. The “Effect on CYP3A4 mRNA (in words)” value (CYP3A4 mRNA; in vitro) was “increased CYP3A4 mRNA”.
